Among the test systems are NCI/ADR-RES; SNB-19; HCT-15; PC-3; NCI-H522; MDA-MB-435; LOX IMVI; HOP-92; IGROV-1; NCI-H23; TK-10; NCI-H460; UACC-257; RPMI-8226; OVCAR-8; SK-MEL-2; SF-295; K562; CCRF-CEM; HL-60.
Test in all cases: inhibition of tumour cell growth, NCI panel, 48 h

Molecules are shown by their SMILES.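 Values below derive from 48-hour exposures of cells grown in 96-well plates, with endpoints linearly interpolated between the two concentrations bracketing the appropriate inhibition level. GI50: concentration for 50% inhibition of growth.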 Calls of active or inactive are those of the source. No stated cut-off is given here; in the data, active = GI50 up to about 1.1 µM and inactive = higher. Where only a bound is given, the exact number is not on record here.

For `Nc1ccc(N(S(=O)(=O)c2ccccc2)S(=O)(=O)c2ccccc2)c(Cl)c1`, the GI50 was 40.2 µM (inactive) with NCI/ADR-RES; > 100 µM (inactive) with SNB-19; 55.7 µM in the assay with HCT-15; 35.6 µM (inactive) in the assay with PC-3; 33.9 µM (inactive) in the assay on NCI-H522; 15.1 µM (inactive) in the assay on MDA-MB-435. The GI50 with LOX IMVI is 68.1 µM (inactive); in the assay on HOP-92, 70.3 µM (inactive); in the assay on IGROV-1 it was 62.1 µM (inactive); in the assay on NCI-H23, 55.8 µM (inactive); in the assay on TK-10, 55.1 µM (inactive); in the assay with NCI-H460, 34.8 µM (inactive). In addition, the GI50 with UACC-257 is 34.3 µM (inactive); in the assay on RPMI-8226 it was 28.7 µM (inactive); in the assay with OVCAR-8, 70.8 µM (inactive); in the assay on SK-MEL-2 it was 31.3 µM (inactive); with SF-295, 32.2 µM (inactive); in the assay on K562, 2.98 µM (inactive).
`CC(C)(C)/N=c1/n(C(C)(C)C)oc(=O)n1C(C)(C)C`: the GI50 is > 100 µM (inactive) with NCI/ADR-RES; > 100 µM (inactive) with SNB-19; more than 100 µM in the assay with HCT-15; > 100 µM (inactive) in the assay with PC-3; > 100 µM (inactive) with CCRF-CEM; > 100 µM (inactive) in the assay on LOX IMVI. Moreover, the GI50 is > 100 µM (inactive) in the assay with HOP-92; > 100 µM (inactive) in the assay with IGROV-1; 81.1 µM (inactive) in the assay on NCI-H23; > 100 µM (inactive) in the assay with TK-10; > 100 µM (inactive) in the assay with NCI-H460; > 100 µM (inactive) with UACC-257. In addition, the GI50 in the assay with HL-60, in the assay with OVCAR-8, in the assay on SK-MEL-2, in the assay on SF-295 and in the assay with K562 was > 100 µM (inactive) each time.
With `CC(C)CC(N)C(=O)NC(CNC(CCC(N)=O)C(=O)NC(CC(C)C)C(=O)NC(CC(C)C)C(=O)O)Cc1ccc2ccccc2c1` (stereo not given), the GI50 was > 10 µM (inactive) in the assay on NCI/ADR-RES; > 10 µM (inactive) in the assay with SNB-19; more than 10 µM with HCT-15; > 10 µM (inactive) with PC-3; > 10 µM (inactive) in the assay with CCRF-CEM; > 10 µM (inactive) in the assay with MDA-MB-435. In addition, the GI50 in the assay on LOX IMVI, with HOP-92, in the assay on IGROV-1, in the assay with NCI-H23, with TK-10 and in the assay on NCI-H460 was > 10 µM (inactive) each time. Besides, the GI50 in the assay with UACC-257, with HL-60, in the assay on RPMI-8226, with OVCAR-8, in the assay on SK-MEL-2 and with SF-295 was > 10 µM (inactive) in each case. In addition, in the assay on K562, the GI50 is > 10 µM (inactive).
Take `CC(=O)O[C@H]1C[C@@H](OC(C)=O)[C@@](C)(O)[C@@H]2[C@@H](OC(C)=O)[C@@]3(O)[C@H](/C=C(/CCl)[C@H]4O[C@H]4[C@@H](OC(C)=O)[C@@]12C)OC(=O)[C@@H]3C`: the GI50 in the assay with NCI/ADR-RES was > 25 µM (inactive); in the assay with SNB-19 it was > 25 µM (inactive); in the assay on HCT-15, more than 25 µM; with PC-3 it was > 25 µM (inactive); in the assay with NCI-H522, > 25 µM (inactive); in the assay with CCRF-CEM it was 18.5 µM (inactive). The GI50 with MDA-MB-435 was 19.7 µM (inactive); in the assay on LOX IMVI, 21.2 µM (inactive); in the assay on HOP-92 it was > 25 µM (inactive); with IGROV-1, > 25 µM (inactive); in the assay on NCI-H23 it was > 25 µM (inactive); with TK-10, > 25 µM (inactive). For the same compound, the GI50 was > 25 µM (inactive) in the assay with NCI-H460; > 25 µM (inactive) with UACC-257; 9.89 µM (inactive) in the assay on RPMI-8226; > 25 µM (inactive) in the assay on OVCAR-8; > 25 µM (inactive) in the assay with SK-MEL-2; 17.7 µM (inactive) in the assay on SF-295. Further, in the assay on K562, the GI50 is > 25 µM (inactive).
Take `Cc1c(Cl)c(=O)oc2cc(OCC(=O)c3ccccc3)ccc12`: the GI50 is > 100 µM (inactive) in the assay on NCI/ADR-RES; > 100 µM (inactive) with SNB-19; more than 100 µM with HCT-15; > 100 µM (inactive) in the assay with PC-3; > 100 µM (inactive) in the assay on NCI-H522; > 100 µM (inactive) in the assay with CCRF-CEM. In addition, the GI50 in the assay on MDA-MB-435 is > 100 µM (inactive); in the assay on HOP-92, 97.5 µM (inactive); in the assay on IGROV-1, > 100 µM (inactive); in the assay on NCI-H23 it was > 100 µM (inactive); in the assay with TK-10, 92 µM (inactive); in the assay on NCI-H460, > 100 µM (inactive). For the same compound, the GI50 in the assay with UACC-257, in the assay with HL-60, in the assay with OVCAR-8, in the assay on SK-MEL-2, in the assay with SF-295 and with K562 was > 100 µM (inactive) throughout.
As to `Cc1ccc(NC(=O)/C(=N/N(C)C)C(C2OC(=O)c3ccccc32)[N+](=O)[O-])cc1` (stereo not given), the GI50 is > 100 µM (inactive) with NCI/ADR-RES; more than 100 µM in the assay with HCT-15; > 100 µM (inactive) in the assay on PC-3; > 100 µM (inactive) with CCRF-CEM; > 100 µM (inactive) with MDA-MB-435; > 100 µM (inactive) with LOX IMVI. Moreover, the GI50 in the assay with HOP-92, in the assay on NCI-H23, with TK-10, in the assay with NCI-H460, in the assay with UACC-257 and with HL-60 was > 100 µM (inactive) throughout. In addition, the GI50 with RPMI-8226, with OVCAR-8, with SK-MEL-2, with SF-295 and in the assay with K562 was > 100 µM (inactive) in each case.
Take `COc1ccc(C2c3cc4c(cc3OC(NCCO)C2C)OCO4)cc1` (stereo not given): the GI50 in the assay on SNB-19 was 28 µM (inactive); in the assay on HCT-15 it was 17.7 µM; with PC-3 it was 23.4 µM (inactive); with NCI-H522, 16.6 µM (inactive); in the assay on CCRF-CEM, 21.2 µM (inactive); with MDA-MB-435, 23.6 µM (inactive). The GI50 in the assay on LOX IMVI was 23.3 µM (inactive); with HOP-92, 34.3 µM (inactive); in the assay with IGROV-1, 28.8 µM (inactive); with NCI-H23, 35.8 µM (inactive); in the assay with TK-10 it was 23.8 µM (inactive); in the assay on NCI-H460, 22.8 µM (inactive). In addition, the GI50 with UACC-257 was 21 µM (inactive); in the assay on HL-60 it was 22.6 µM (inactive); in the assay with RPMI-8226, 22.1 µM (inactive); in the assay with SK-MEL-2, 19.3 µM (inactive); with SF-295, 27.9 µM (inactive); in the assay on K562, 22.5 µM (inactive).
On to `CC(C)(C)C1=C(Br)C(Br)(C(C)(C)C)OP1(=O)c1ccccc1` (stereo not given), for which the GI50 was > 100 µM (inactive) with NCI/ADR-RES; > 100 µM (inactive) with SNB-19; more than 100 µM with HCT-15; > 100 µM (inactive) in the assay on PC-3; > 100 µM (inactive) with NCI-H522; > 100 µM (inactive) with MDA-MB-435. In addition, the GI50 in the assay on LOX IMVI, in the assay on HOP-92, in the assay on IGROV-1, in the assay with NCI-H23, in the assay on TK-10 and with NCI-H460 was > 100 µM (inactive) each time. In addition, the GI50 with UACC-257, with HL-60, with OVCAR-8, with SK-MEL-2, in the assay with SF-295 and in the assay on K562 was > 100 µM (inactive) throughout.
For `CSc1ncnc2c1ncn2CCC#N`, the GI50 with NCI/ADR-RES, in the assay on SNB-19, in the assay on PC-3, in the assay with NCI-H522, with CCRF-CEM and in the assay with MDA-MB-435 was > 100 µM (inactive) throughout. The GI50 with LOX IMVI, with HOP-92, in the assay with IGROV-1, in the assay with NCI-H23, in the assay with TK-10 and with NCI-H460 was > 100 µM (inactive) in each case. The GI50 with UACC-257, in the assay with HL-60, in the assay with RPMI-8226, with OVCAR-8, with SF-295 and in the assay with K562 was > 100 µM (inactive) each time.
As for `CCCCN(C(=O)c1ccccc1)C1CCC(=O)c2[nH]c3ccccc3c21` (stereo not given), the GI50 in the assay with NCI/ADR-RES is 30.8 µM (inactive); in the assay on SNB-19, 43.6 µM (inactive); with HCT-15, 24.5 µM; in the assay with PC-3 it was 20.7 µM (inactive); in the assay with NCI-H522 it was 38.7 µM (inactive); with CCRF-CEM it was 29.6 µM (inactive). In addition, the GI50 was 23.1 µM (inactive) in the assay with MDA-MB-435; 43.1 µM (inactive) in the assay with LOX IMVI; 22.1 µM (inactive) with HOP-92; 46.3 µM (inactive) with IGROV-1; 62.4 µM (inactive) in the assay on NCI-H23; 37.5 µM (inactive) in the assay on TK-10. The GI50 in the assay with NCI-H460 is 35.4 µM (inactive); with UACC-257, 54 µM (inactive); in the assay with HL-60, 8.75 µM (inactive); with RPMI-8226, 19.4 µM (inactive); in the assay on OVCAR-8, 45.8 µM (inactive); in the assay with SF-295, 30.5 µM (inactive). For the same compound, the GI50 with K562 was 49.7 µM (inactive).
As to `COc1c(-c2ccc3c(c2)OCO3)oc2cc3c(c(OC)c2c1=O)OCO3` [MELITERNATIN], the GI50 was 27.6 µM (inactive) in the assay with NCI/ADR-RES; 18.4 µM (inactive) in the assay with SNB-19; 30.8 µM in the assay with HCT-15; 21.1 µM (inactive) in the assay on PC-3; 21.5 µM (inactive) in the assay with NCI-H522; 30.8 µM (inactive) with CCRF-CEM. The GI50 was 17.6 µM (inactive) in the assay with MDA-MB-435; 11.6 µM (inactive) in the assay on LOX IMVI; 15.3 µM (inactive) with HOP-92; 18.7 µM (inactive) with IGROV-1; 22.8 µM (inactive) in the assay with NCI-H23; 25.5 µM (inactive) in the assay on TK-10. The GI50 with NCI-H460 is 14.4 µM (inactive); in the assay on UACC-257, 38.5 µM (inactive); in the assay on HL-60, 1.09 µM (active); in the assay on OVCAR-8, 19.1 µM (inactive); in the assay with SK-MEL-2, 19.6 µM (inactive); in the assay on SF-295, 22.6 µM (inactive). In addition, the GI50 in the assay on K562 was 23.8 µM (inactive).

Source of the values: ChEMBL document CHEMBL1201862, “PubChem BioAssay data set” (2004).
